Results from US9138479B2, “Formulations for the treatment of diabetes” (XERIS PHARMACEUTICALS, INC., priority 2011, dated 2015).

Experiment: Pramlintide solubility in DMSO and DMSO-water co-solvents (visual inspection)
Assay type: physicochemical
Details: pH memory 2.0; 20 mg/mL in neat DMSO
Description: • 3b. […] The resulting solutions are assessed visually for clarity and/or analyzed for light scattering using visible spectroscopy at […], and used in various downstream applications.
Solutions of pramlintide were prepared at a concentration of 2 mg/mL in 10 mM citrate, pH 2.0, or 10 mM citrate, pH 4.0, each with or without 2 mg/mL trehalose. The solutions were dried by centrifugation under vacuum for approximately 3.5 hours at 25-30° C., or lyophilized as described above.

appearance of solution by visual inspection: flowable and completely clear
Compound: CC[C@H](C)[C@H](NC(=O)[C@@H]1CCCN1C(=O)CNC(=O)[C@H](Cc1ccccc1)NC(=O)[C@H](CC(N)=O)NC(=O)[C@H](CC(N)=O)NC(=O)[C@H](CO)NC(=O)[C@H](CO)NC(=O)[C@H](Cc1c[nH]cn1)NC(=O)[C@@H](NC(=O)[C@H](CC(C)C)NC(=O)[C@H](Cc1ccccc1)NC(=O)[C@H](CC(N)=O)NC(=O)[C@H](C)NC(=O)[C@H](CC(C)C)NC(=O)[C@H](CCCNC(=N)N)NC(=O)[C@H](CCC(N)=O)NC(=O)[C@@H](NC(=O)[C@H](C)NC(=O)[C@@H]1CSSC[C@H](NC(=O)[C@@H](N)CCCCN)C(=O)N[C@@H](CC(N)=O)C(=O)N[C@@H]([C@@H](C)O)C(=O)N[C@@H](C)C(=O)N[C@@H]([C@@H](C)O)C(=O)N1)[C@@H](C)O)C(C)C)C(=O)N[C@@H](CC(C)C)C(=O)N1CCC[C@H]1C(=O)N1CCC[C@H]1C(=O)N[C@H](C(=O)N[C@@H](CC(N)=O)C(=O)N[C@H](C(=O)NCC(=O)N[C@@H](CO)C(=O)N[C@@H](CC(N)=O)C(=O)N[C@H](C(=O)N[C@@H](Cc1ccc(O)cc1)C(N)=O)[C@@H](C)O)C(C)C)[C@@H](C)O [pramlintide]
